{"source": "patent US20240010639A1", "about": "“TRIAZINE DIONE DERIVATIVE, PREPARATION METHOD THEREFOR AND APPLICATION THEREOF IN MEDICINE” (Jiangsu Hengrui Pharmaceuticals Co., Ltd., priority 2020, published 2024)", "assay": "Toxicokinetic evaluation of 14-day repeated intragastric administration to SD rats", "format": "in vivo", "conditions": "both sexes, SD, rat, plasma, po; for Vd/F at 7 day: Day 7, read-out: Apparent volume of distribution Vz/F; for CL/F at 7 day: Day 7, read-out: Clearance CL/F; for half-life at 7 day: Day 7, read-out: Half-life T1/2 (converted); for MRT at 7 day: Day 7, read-out: Residence time MRT; for Vd/F at 14 day: Day 14, read-out: Apparent volume of distribution Vz/F; for CL/F at 14 day: Day 14, read-out: Clearance CL/F; for half-life at 14 day: Day 14, read-out: Half-life T1/2 (converted); for Cmax at 14 day: Day 14, read-out: Plasma concentration Cmax; for MRT at 14 day: Day 14, read-out: Residence time MRT", "protocol": "With SD rats as test animals, the plasma concentrations of the test compounds and the concentrations of the original forms of the compounds in the administration solutions were measured by LC/MS/MS at different time points after intragastric administration. The toxicokinetic performance of the compound disclosed herein was studied in SD rats and its toxicokinetic profile was evaluated.\n24 SD rats, an equal number of males and females, evenly divided into 6 groups of 4, an equal number of males and females in each group, provided by Vital River Laboratory Animal Technology Co., Ltd.\nA certain amount of the compound of Example 16 was measured out, and 15% PEG400 and 85% (10% TPGS+1% HPMC K100LV) were added to prepare a pale yellow homogenous suspension.\nA certain amount of compound MYK-461 was measured out, and 0.5% MC was added to prepare a colorless clear solution.\nThe compound of Example 16 was intragastrically administered at doses of 5 mg/kg, 15 mg/kg and 30 mg/kg, at a volume of 10 mL/kg.\nCompound MYK-461 was administered at doses of 0.5 mg/kg, 1.5 mg/kg and 3 mg/kg, at a volume of 10 mL/kg.\n0.2-mL blood samples were collected from the orbit 0.5 h, 1.0 h, 2.0 h, 4.0 h, 8.0 h and 24.0 h after administration on day 1, and before administration and 0.5 h, 1.0 h, 2.0 h, 4.0 h, 8.0 hi, 24.0 h after administration on day 7 and day 14, placed into EDTA-K2 anticoagulation tubes, and centrifuged at 10,000 rpm for 1 min (4° C.), and plasma was isolated within 1 h and stored at −20° C. before analysis. The blood collection to centrifugation process was performed under ice bath conditions. Two hours after administration, feeding was resumed.\nDetermination of plasma concentrations in SD rats after intragastric administration of different concentrations of test compounds: 20 μL of SD rat plasma at each time point post-dose was mixed with 50 μL of an internal standard solution (internal standard for the compound of Example 16: 100 ng/mL verapamil; internal standard for compound MYK-461: 100 ng(mL camptothecin) and 200 μL of acetonitrile; the mixture was vortexed for 5 min and centrifuged at 3700 rpm for 10 min, and 1 μL of the supernatant was taken for LC/MS/MS analysis.", "key": {"[1]": {"conditions": "0.5 mg/kg, repeated intragastric 0.5 mg/kg"}, "[2]": {"conditions": "1.5 mg/kg, repeated intragastric 1.5 mg/kg"}, "[3]": {"conditions": "3 mg/kg, repeated intragastric 3.0 mg/kg"}}, "note": "Read-outs that look alike come from different tables or passages of the source."}
{"molecule": "CC(C)n1c(=O)cc(N[C@@H](C)c2ccccc2)[nH]c1=O", "note": "[MYK-461, reference compound]", "values": [{"measurement": "Vd/F", "setting": "0.5 mg/kg, repeated intragastric 0.5 mg/kg, Day 1, read-out: Apparent volume of distribution Vz/F", "value": 13.8, "unit": "L/kg"}, {"measurement": "AUC", "setting": "0.5 mg/kg, repeated intragastric 0.5 mg/kg, Day 1, read-out: Area under curve AUC", "value": 0.491, "unit": "µg·h/mL"}, {"measurement": "CL/F", "setting": "0.5 mg/kg, repeated intragastric 0.5 mg/kg, Day 1, read-out: Clearance CL/F", "value": 0.774, "unit": "L/h/kg"}, {"measurement": "half-life", "setting": "0.5 mg/kg, repeated intragastric 0.5 mg/kg, Day 1, read-out: Half-life T1/2 (converted)", "value": 13.3, "unit": "h"}, {"measurement": "Cmax", "setting": "0.5 mg/kg, repeated intragastric 0.5 mg/kg, Day 1, read-out: Plasma concentration Cmax", "value": 0.0402, "unit": "µg/mL"}, {"measurement": "MRT", "setting": "0.5 mg/kg, repeated intragastric 0.5 mg/kg, Day 1, read-out: Residence time MRT", "value": 19, "unit": "h"}, {"measurement": "Vd/F at 7 day", "setting": "[1]", "value": 8.41, "unit": "L/kg"}, {"measurement": "AUC", "setting": "0.5 mg/kg, repeated intragastric 0.5 mg/kg, Day 7, read-out: Area under curve AUC", "value": 0.888, "unit": "µg·h/mL"}, {"measurement": "CL/F at 7 day", "setting": "[1]", "value": 0.448, "unit": "L/h/kg"}, {"measurement": "half-life at 7 day", "setting": "[1]", "value": 14.7, "unit": "h"}, {"measurement": "Cmax", "setting": "0.5 mg/kg, repeated intragastric 0.5 mg/kg, Day 7, read-out: Plasma concentration Cmax", "value": 0.0517, "unit": "µg/mL"}, {"measurement": "MRT at 7 day", "setting": "[1]", "value": 21.3, "unit": "h"}, {"measurement": "Vd/F at 14 day", "setting": "[1]", "value": 5.86, "unit": "L/kg"}, {"measurement": "AUC", "setting": "0.5 mg/kg, repeated intragastric 0.5 mg/kg, Day 14, read-out: Area under curve AUC", "value": 1.56, "unit": "µg·h/mL"}, {"measurement": "CL/F at 14 day", "setting": "[1]", "value": 0.184, "unit": "L/h/kg"}, {"measurement": "half-life at 14 day", "setting": "[1]", "value": 32.9, "unit": "h"}, {"measurement": "Cmax at 14 day", "setting": "[1]", "value": 0.0893, "unit": "µg/mL"}, {"measurement": "MRT at 14 day", "setting": "[1]", "value": 47.3, "unit": "h"}, {"measurement": "Vd/F at 1 day", "setting": "1.5 mg/kg, repeated intragastric 1.5 mg/kg, Day 1, read-out: Apparent volume of distribution Vz/F", "value": 9.56, "unit": "L/kg"}, {"measurement": "AUC", "setting": "1.5 mg/kg, repeated intragastric 1.5 mg/kg, Day 1, read-out: Area under curve AUC", "value": 2.58, "unit": "µg·h/mL"}, {"measurement": "CL/F at 1 day", "setting": "1.5 mg/kg, repeated intragastric 1.5 mg/kg, Day 1, read-out: Clearance CL/F", "value": 0.383, "unit": "L/h/kg"}, {"measurement": "half-life at 1 day", "setting": "1.5 mg/kg, repeated intragastric 1.5 mg/kg, Day 1, read-out: Half-life T1/2 (converted)", "value": 19.1, "unit": "h"}, {"measurement": "Cmax at 1 day", "setting": "1.5 mg/kg, repeated intragastric 1.5 mg/kg, Day 1, read-out: Plasma concentration Cmax", "value": 0.14, "unit": "µg/mL"}, {"measurement": "MRT at 1 day", "setting": "1.5 mg/kg, repeated intragastric 1.5 mg/kg, Day 1, read-out: Residence time MRT", "value": 28.2, "unit": "h"}, {"measurement": "Vd/F at 7 day", "setting": "[2]", "value": 4.8, "unit": "L/kg"}, {"measurement": "AUC", "setting": "1.5 mg/kg, repeated intragastric 1.5 mg/kg, Day 7, read-out: Area under curve AUC", "value": 5.18, "unit": "µg·h/mL"}, {"measurement": "CL/F at 7 day", "setting": "[2]", "value": 0.215, "unit": "L/h/kg"}, {"measurement": "half-life at 7 day", "setting": "[2]", "value": 20.5, "unit": "h"}, {"measurement": "Cmax at 7 day", "setting": "1.5 mg/kg, repeated intragastric 1.5 mg/kg, Day 7, read-out: Plasma concentration Cmax", "value": 0.269, "unit": "µg/mL"}, {"measurement": "MRT at 7 day", "setting": "[2]", "value": 30.2, "unit": "h"}, {"measurement": "Vd/F at 14 day", "setting": "[2]", "value": 5.03, "unit": "L/kg"}, {"measurement": "AUC", "setting": "1.5 mg/kg, repeated intragastric 1.5 mg/kg, Day 14, read-out: Area under curve AUC", "value": 6.32, "unit": "µg·h/mL"}, {"measurement": "CL/F at 14 day", "setting": "[2]", "value": 0.154, "unit": "L/h/kg"}, {"measurement": "half-life at 14 day", "setting": "[2]", "value": 26.2, "unit": "h"}, {"measurement": "Cmax at 14 day", "setting": "[2]", "value": 0.333, "unit": "µg/mL"}, {"measurement": "MRT at 14 day", "setting": "[2]", "value": 38.5, "unit": "h"}, {"measurement": "Vd/F at 1 day", "setting": "3 mg/kg, repeated intragastric 3.0 mg/kg, Day 1, read-out: Apparent volume of distribution Vz/F", "value": 8.93, "unit": "L/kg"}, {"measurement": "AUC", "setting": "3 mg/kg, repeated intragastric 3.0 mg/kg, Day 1, read-out: Area under curve AUC", "value": 5.21, "unit": "µg·h/mL"}, {"measurement": "CL/F at 1 day", "setting": "3 mg/kg, repeated intragastric 3.0 mg/kg, Day 1, read-out: Clearance CL/F", "value": 0.295, "unit": "L/h/kg"}, {"measurement": "half-life at 1 day", "setting": "3 mg/kg, repeated intragastric 3.0 mg/kg, Day 1, read-out: Half-life T1/2 (converted)", "value": 28.5, "unit": "h"}, {"measurement": "Cmax at 1 day", "setting": "3 mg/kg, repeated intragastric 3.0 mg/kg, Day 1, read-out: Plasma concentration Cmax", "value": 0.297, "unit": "µg/mL"}, {"measurement": "MRT at 1 day", "setting": "3 mg/kg, repeated intragastric 3.0 mg/kg, Day 1, read-out: Residence time MRT", "value": 43.1, "unit": "h"}, {"measurement": "Vd/F at 7 day", "setting": "[3]", "value": 4.36, "unit": "L/kg"}, {"measurement": "AUC", "setting": "3 mg/kg, repeated intragastric 3.0 mg/kg, Day 7, read-out: Area under curve AUC", "value": 12.5, "unit": "µg·h/mL"}, {"measurement": "CL/F at 7 day", "setting": "[3]", "value": 0.118, "unit": "L/h/kg"}, {"measurement": "half-life at 7 day", "setting": "[3]", "value": 190, "unit": "h"}, {"measurement": "Cmax at 7 day", "setting": "3 mg/kg, repeated intragastric 3.0 mg/kg, Day 7, read-out: Plasma concentration Cmax", "value": 0.628, "unit": "µg/mL"}, {"measurement": "MRT at 7 day", "setting": "[3]", "value": 275, "unit": "h"}, {"measurement": "Vd/F at 14 day", "setting": "[3]", "value": 3.8, "unit": "L/kg"}, {"measurement": "AUC", "setting": "3 mg/kg, repeated intragastric 3.0 mg/kg, Day 14, read-out: Area under curve AUC", "value": 16, "unit": "µg·h/mL"}, {"measurement": "CL/F at 14 day", "setting": "[3]", "value": 0.078, "unit": "L/h/kg"}, {"measurement": "half-life at 14 day", "setting": "[3]", "value": 46.5, "unit": "h"}, {"measurement": "Cmax at 14 day", "setting": "[3]", "value": 0.767, "unit": "µg/mL"}, {"measurement": "MRT at 14 day", "setting": "[3]", "value": 68.1, "unit": "h"}]}
